Type in all cases: binding
In one assay the test system is 53BP1 TTD. The assay can be described thus: Histone peptide microarray, 53BP1 TTD. As to conditions: 53BP1 TTD hits, average signal per peptide. The essentials:
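Histone peptides were printed as microarrays and probed with protein or antibody in 25 mM HEPES pH 7.5, 100 mM NaCl, 0.5% BSA (w/v), 0.1% NP-40. Between steps, slides were washed 3 × 5 min in PBS with 0.1% Tween-20. Bound GST-tagged protein was detected with anti-GST (1:2,000), then AlexaFluor 647 secondary (1:5,000).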

Assay [1] concerns Active Motif #39161, anti-H3K9me3. The assay can be described thus: Histone peptide microarray, Active Motif 39161. Conditions: Active Motif 39161 (anti-H3K9me3) hits.
The test system of assay [2] is Millipore #07-449, anti-H3K27me3. The assay can be described thus: Histone peptide microarray, Millipore 07-449. As to conditions: Millipore 07-449 (anti-H3K27me3) hits, average signal per peptide.
Assay [3] has as its system Abcam #ab8895, anti-H3K4me1. The assay can be described thus: Histone peptide microarray, Abcam ab8895. Conditions: Abcam ab8895 (anti-H3K4me1) hits, average signal per peptide.
Assay [4] has as its system ABClonal #A2355, anti-H3K4me1. The assay can be described thus: Histone peptide microarray, ABclonal A2355. As to conditions: Abclonal A2355 (anti-H3K4me1) hits. Here is the method:
Peptide microarrays were fabricated using an Aushon 2470 microarrayer and used as described ([Cornett et al., 2017]) with the following modifications. Protein and antibody hybridization steps were performed in buffer containing 25 mM HEPES pH 7.5, 100 mM NaCl, 0.5% BSA (w/v), and 0.1% NP-40. Slides were washed 3 × 5 min in PBS supplemented with 0.1% Tween-20 between each hybridization step. Antibodies used were primary anti-GST (Sigma #7781, 1:2,000 dilution) and an AlexaFluor 647-labeled secondary antibody (Life Technologies A-21245, 1:5,000 dilution). […] Full lists of peptides queried by array analysis are in Supplementary Table S2.

The next assay deals with CST 9733 (anti-H3K27me3). The assay can be described thus: Histone peptide microarray, CST 9733. As to conditions: histone peptide array signal normalized to the highest peptide average per subarray, hits; CST 9733 LOT:14 dilution 1:5,000.

Here are results for 26 substances from PMC7160673, “A Degenerate Peptide Library Approach to Reveal Sequence Determinants of Methyllysine-Driven Protein Interactions” (Frontiers in Cell and Developmental Biology, 2020).

In the case of “AR(Me2a)TK(Me2)QTARKSTGGKAPRKQL-K(Biot)-NH2 [H3.1R2me2aK4me2]”, the “Avg Signal” value with 53BP1 TTD turned out to be 0.2614; in assay [1], 0.0008405; in assay [2], 0.008316; in assay [3], 0.2655; in assay [4], 0.325.

With “AR(Me2a)TKQTARKSTGGKAPRKQL-K(Biot)-NH2 [Peptide H3.1R2me2a]”, the “Avg Signal” value in the assay with 53BP1 TTD turned out to be 0.05357; in assay [1], 0.00368; in assay [2], 0.004979; in assay [3], 0.1119; in assay [4], 0.0139.

“AR(Me2a)pTK(Me3)QTARKSTGGKAPRKQL-K(Biot)-NH2 [H3.1R2me2aT3pK4me3]”: the “Avg Signal” value with 53BP1 TTD is listed as 0.03111; in assay [2], 0.007597; in assay [3], 0.001405; in assay [4], 0.002084.

For the substance “ARTK(Ac)QTARKSTGGK(Ac)APRK(Ac)QL-K(Biot)-NH2 [H3.1K4acK14acK18ac]”, the “Avg Signal” value is listed as 0.1071 in the assay on 53BP1 TTD, 0.004978 in assay [2], 0.001503 in assay [3] and 0.005007 in assay [4].

Consider “ARTK(Ac)QTARKSTGGKAPRK(Ac)QL-K(Biot)-NH2 [H3.1K4acK18ac]”, for which the “Avg Signal” value was 0.07704 in the assay on 53BP1 TTD, 0.0001961 in assay [1], 0.002862 in assay [3] and 0.001249 in assay [4].

Take “ARTK(Me2)QTARK(Ac)STGGK(Ac)APRK(Ac)QL-K(Biot)-NH2 [H3.1K4me2K9acK14acK18ac]”: the “Avg Signal” value is 0.5398 in the assay on 53BP1 TTD, 0.02042 in assay [2], 0.4999 in assay [3] and 0.4093 in assay [4].

In the case of “ARTK(Me2)QTARK(Ac)STGGKAPRK(Ac)QL-K(Biot)-NH2 [H3.1K4me2K9acK18ac]”, the “Avg Signal” value with 53BP1 TTD was determined as 0.5101; in assay [1], 0.009454; in assay [3], 0.4062; in assay [4], 0.4042.

In the case of “ARTK(Me2)QTARKSTGGKAPRKQL-K(Biot)-NH2 [Peptide H3.1K4me2]”, the “Avg Signal” value with 53BP1 TTD was found to be 0.3009; in assay [1] it was 0.001961; in assay [3] it was 0.3093; in assay [4], 0.3078.

Consider “ARTK(Me)QTARK(Ac)STGGK(Ac)APRK(Ac)QL-K(Biot)-NH2 [H3.1K4me1K9acK14acK18ac]”, for which the “Avg Signal” value in the assay on 53BP1 TTD came out at 0.194; in assay [1], 0.005174; in assay [3], 0.9702; in assay [4] it was 0.8066.

On to “ARTK(Me)QTARK(Ac)STGGKAPRK(Ac)QL-K(Biot)-NH2 [H3.1K4me1K9acK18ac]”, for which the “Avg Signal” value in the assay with 53BP1 TTD was found to be 0.06582; in assay [1], 0.0008903; in assay [3], 0.7729; in assay [4], 0.6625.

As to “ARTK(Me)QTARKSTGGKAPRK(Ac)QL-Peg-Biot [H3.1K4me1K18ac]”, the “Avg Signal” value is recorded as 1.355e-5 with CST 9733 (anti-H3K27me3), 0.002272 in assay [2], 0.7343 in assay [3] and 0.5708 in assay [4].

Consider “ARTK(Me)QTARKSTGGKAPRKQL-K(Biot)-NH2 [Peptide H3.1K4me1]”, for which the “Avg Signal” value in the assay on 53BP1 TTD came to 0.08871; in assay [3], 0.89; in assay [4] it was 0.7621.

“ARTK(N3)QTARKSTGGKAPRKQL-K(Biot)-NH2 [Peptide H3.1K4N3]”: the “Avg Signal” value with 53BP1 TTD amounted to 0.07618; in assay [3] it was 0.03034; in assay [4], 0.03523.

Turning to “ARTKQTARK(Ac)STGGK(Ac)APRK(Ac)QL-K(Biot)-NH2 [H3.1K9acK14acK18ac]”, the “Avg Signal” value in the assay on 53BP1 TTD was found to be 0.1031; in assay [1] it was 0.001438; in assay [3], 0.2691; in assay [4] it was 0.01044.

For the substance “Ac-APRKQLAT-NleAARKSAPS-Peg-Biot [Peptide H3.3K23-Nle]”, the “Avg Signal” value in assay [1] is listed as 0.003975; in the assay with CST 9733 (anti-H3K27me3), 0.0003783; in assay [2] it was 0.001042; in assay [4] it was 0.0003163.

In the case of “Ac-APRKQLATKAARK(Me2)pSAPSTGG-Peg-Biot [H3.3K27me2S28p]”, the “Avg Signal” value was found to be 0.009021 in assay [1], 0.004223 in the assay on CST 9733 (anti-H3K27me3), 0.003767 in assay [2] and 0.002617 in assay [4].

Turning to “Ac-IAQDFK(Me2)TDLRF-Peg-K(Biot)-NH2 [Peptide H3.1K79me2]”, the “Avg Signal” value was found to be 0.2119 in the assay on 53BP1 TTD, 0.002961 in assay [2] and 0.0001532 in assay [4].

For the substance “Ac-IAQDFK(Me3)TDLRF-Peg-K(Biot)-NH2 [Peptide H3.1K79me3]”, the “Avg Signal” value is 0.03452 in the assay on 53BP1 TTD, 0.06064 in assay [3] and 0.03778 in assay [4].

On to “Ac-SGRGK(Ac)GGK(Me)GLGK(Ac)GGAK(Ac)RHRKVLR-Peg-Biot [H4K5acK8me1K12acK16ac]”, for which the “Avg Signal” value stood at 0.001214 in assay [1], 7.434e-5 in the assay with CST 9733 (anti-H3K27me3), 0.006645 in assay [3] and 0.003516 in assay [4].

With “Ac-SGRGK(Ac)GGK(Me)GLGK(Ac)GGAKRHRKVLR-Peg-Biot [H4K5acK8me1K12ac]”, the “Avg Signal” value was found to be 0.01545 in assay [1], 0.005126 in assay [2], 0.003463 in assay [3] and 0.01786 in assay [4].

Turning to “Ac-SGRGK(Ac)GGKGLGK(Ac)GGAKRHRKVLR-Peg-Biot [Peptide H4K5acK12ac]”, the “Avg Signal” value was 0.08013 in the assay with 53BP1 TTD; 0.02456 in assay [1]; 0.01271 in assay [2]; 0.0343 in assay [3]; 0.01286 in assay [4].

Take “Ac-SGRGK(Ac)QGGK(Ac)ARAK(Ac)AK(Ac)TR-Peg-Biot [H2AK5acK9acK13acK15ac]”: the “Avg Signal” value in the assay on 53BP1 TTD amounted to 0.0113; in assay [1], 0.005245; in assay [2], 0.001671; in assay [4], 0.0056.

For the substance “Ac-SGRGK(Ac)QGGKARAKAKTR-Peg-Biot [Peptide H2AK5ac]”, the “Avg Signal” value was determined as 0.06555 in the assay on 53BP1 TTD, 0.04469 in assay [3] and 0.0257 in assay [4].

For the substance “Ac-SGRGK(Me)GGKGLGKGGAKRHRKVLR-Peg-Biot [Peptide H4K5me1]”, the “Avg Signal” value is on record as 0.04055 in assay [1], 0.002242 in assay [2], 0.01832 in assay [3] and 0.006523 in assay [4].

In the case of “Ac-SGRGKGGKGLGK(Me)GGAKRHRKVLR-Peg-Biot [Peptide H4K12me1]”, the “Avg Signal” value came out at 0.001118 in assay [1]; 0.0001351 with CST 9733 (anti-H3K27me3); 0.0009635 in assay [2]; 0.009402 in assay [3]; 0.01394 in assay [4].

Consider “Ac-SGRGKGGKGLGKGGAK(Ac)RHRKVLR-Peg-Biot [Peptide H4K16ac]”, for which the “Avg Signal” value in the assay with 53BP1 TTD came out at 0.07097; in assay [2], 0.001899; in assay [3] it was 0.0007834; in assay [4], 0.00197.
